# Assay results taken from patent publication US9783528B2, “Inhibitors of the enzyme UDP-glucose: N-acyl-sphingosine glucosyltransferase” (Concert Pharmaceuticals, Inc., priority 2013, dated 2017).
# Where two headings read alike, the source gives them in different places.
# Tests used:
# Human CYP2D6 Supersomes = target: T1, Human CYP2D6 Supersomes (Homo sapiens, UniProt P10635); assay: Metabolic stability in Human CYP2D6 Supersomes; assay type: in vitro ADME; conditions: Table 4a; for t1/2 (minutes) Experiment 2 / t1/2 (minutes) Experiment 1: 5 pmol/mL CYP2D6 supersomes, 0.25 μM test compound, 2 mM NADPH, 37° C.; for t1/2 (minutes) Experiment 1: parent remaining by LC-MS/MS; for t1/2 (minutes) Ave ± SD: average of Experiments 1 and 2
# T1 construct: purchased Corning Gentest
# T1 sequence (P10635 whole entry): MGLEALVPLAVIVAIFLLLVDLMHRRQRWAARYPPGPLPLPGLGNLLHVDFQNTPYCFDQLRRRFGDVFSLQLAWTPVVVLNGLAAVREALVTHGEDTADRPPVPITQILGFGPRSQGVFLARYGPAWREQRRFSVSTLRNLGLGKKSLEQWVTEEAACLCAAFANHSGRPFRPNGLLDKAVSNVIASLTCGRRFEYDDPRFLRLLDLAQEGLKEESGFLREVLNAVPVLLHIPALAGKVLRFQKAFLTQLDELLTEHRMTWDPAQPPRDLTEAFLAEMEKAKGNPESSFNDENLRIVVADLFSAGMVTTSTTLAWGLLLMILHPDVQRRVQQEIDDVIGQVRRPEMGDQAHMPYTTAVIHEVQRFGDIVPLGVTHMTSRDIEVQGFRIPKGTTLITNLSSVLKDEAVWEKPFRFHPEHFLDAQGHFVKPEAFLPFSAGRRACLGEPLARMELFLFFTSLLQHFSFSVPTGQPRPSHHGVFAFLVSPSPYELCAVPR
# Protocol: (§1) Evaluation of Metabolic Stability in Human CYP2D6 Supersomes™
# (§2) Materials: CYP2D6 Supersomes™ were obtained from Corning Gentest. β-nicotinamide adenine dinucleotide phosphate, reduced form (NADPH), magnesium chloride (MgCl2), and dimethyl sulfoxide (DMSO) were purchased from Sigma-Aldrich. D-Eliglustat compounds were supplied by Concert Pharmaceuticals.
# (§3) Determination of Metabolic Stability: 10 mM stock solutions of test compounds were prepared in DMSO. […] The CYP2D6 supersomes were diluted to 5 pmol/mL in 0.1 M potassium phosphate buffer, pH 7.4, containing 3 mM MgCl2. The diluted supersomes were added to wells of a 96-well deep-well polypropylene plate in triplicate. […] Reactions were initiated by addition of pre-warmed NADPH solution. The final reaction volume was 0.5 mL and contained 5 pmol/mL CYP2D6 supersomes, 0.25 μM test compound, and 2 mM NADPH in 0.1 M potassium phosphate buffer, pH 7.4, and 3 mM MgCl2. The reaction mixtures were incubated at 37° C. and 50 μL aliquots were removed at 0, 5, 10, 20, and 30 minutes and added to shallow-well 96-well plates which contained 50 μL of ice-cold ACN with internal standard to stop the reactions. The plates were stored at 4° C. for 20 minutes after which 100 μL of water was added to the wells of the plate before centrifugation to pellet precipitated proteins. Supernatants were transferred to another 96-well plate and analyzed for amounts of parent remaining by LC-MS/MS using an Applied Bio-systems mass spectrometer.
# (§4) Data analysis: The in vitro t1/2s for test compounds were calculated from the slopes of the linear regression of % parent remaining (ln) vs incubation time relationship.
# (§5) k=−[slope of linear regression of % parent remaining (ln) vs incubation time]
# (§6) Data analysis was performed using Microsoft Excel Software.
# CYP2D6 = target: T2, CYP2D6 (Homo sapiens, UniProt P10635); assay: Metabolic stability in Human CYP2D6 Supersomes; assay type: in vitro ADME; conditions: human, recombinant human CYP2D6 Supersomes
# T2 construct: purchased Corning Gentest
# T2 sequence (P10635 whole entry): as above
# Protocol: as §1, §2, §3, §4, §5, §6
% Δ of t1/2 = [(deuterated species) − (nondeuterated species)](100)/(nondeuterated species) (Human CYP2D6 Supersomes; versus Eliglustat (D0)),"half-life at 0.25 μM (CYP2D6; pH 7.4, Table 4a, 5 pmol/mL CYP2D6 supersomes, 0.25 μM test compound, 2 mM NADPH, 37° C., parent remaining by LC-MS/MS, read-out: t1/2 (minutes) Experiment 1)","half-life at 0.25 μM (CYP2D6; pH 7.4, Table 4a, 5 pmol/mL CYP2D6 supersomes, 0.25 μM test compound, 2 mM NADPH, 37° C., read-out: t1/2 (minutes) Experiment 2)","half-life at 0.25 μM (CYP2D6; pH 7.4, Table 4a, average of Experiments 1 and 2, read-out: t1/2 (minutes) Ave ± SD)","half-life at 0.25 μM (CYP2D6; pH 7.4, Table 4b, Human CYP2D6 Supersomes, read-out: t1/2 (minutes) Experiment 1)","half-life at 0.25 μM (CYP2D6; pH 7.4, Table 4b, Human CYP2D6 Supersomes, read-out: t1/2 (minutes) Experiment 2)","half-life at 0.25 μM (CYP2D6; pH 7.4, Table 4b, average of Experiments 1 and 2, read-out: t1/2 (minutes) Ave ± SD)",Compound,t1/2 (minutes) Experiment 2 (Human CYP2D6 Supersomes),t1/2 (minutes) Experiment 1 (Human CYP2D6 Supersomes),t1/2 (minutes) Ave ± SD (Human CYP2D6 Supersomes)
–,–,–,–,–,–,–,"N-((1R,2R)-1-(2,3-Dihydrobenzo[b][1,4]dioxin-6-yl-2,2,3,3-d4)-1-hydroxy-3-(pyrrolidin-1-yl-d8)propan-2-yl)octanamide hemi-L-tartaric acid salt [Compound 118]",5.9 min,5.6 min,5.8 ± 0.2 min
119%,–,–,–,–,–,–,"N-((1R,2R)-1-(2,3-dihydrobenzo[b][1,4]dioxin-6-yl)-1-hydroxy-3-(pyrrolidin-2-yl-3,3-d2)octan-d15-amide hemi-L-tartaric acid salt [Compound 171]",17.1 min,12.3 min,14.7 ± 3.4 min
–,6.6 min,5.1 min,6.7 ± 1.5 min,9.7 min,6.3 min,8 ± 2.4 min,"CCCCCCCC(=O)N[C@H](CN1CCCC1)[C@H](O)c1ccc2c(c1)OCCO2 [Eliglustat (D0), N-[2-(2,3-dihydro-1,4-benzodioxin-6-yl)-2(R)-hydroxy-1(R)-(pyrrolidin-1-ylmethyl)ethyl]octanamide, reference compound]",–,–,–
